Structures are written as SMILES.

The target in assay [1] is T1, TrCel7A (Trichoderma reesei, UniProt P62694).
T1 construct: TrCel7A was purified from the culture filtrate of Tr QM 9414 as described previously; made in house; host or cells: Trichoderma reesei QM 9414 culture filtrate (native producer)
Kind of assay: Inhibition of synergistic hydrolysis of 14C-BC by TrCel7A (supplemented with EG TrCel5A). The class given is biochemical. As to conditions: IC50 for cellobiose, 14C-BC substrate, average over time points. Here is the method: To study the cellobiose inhibition of GH7 CBHs, the synergistic hydrolysis of ^14C-BC in the presence of added cellobiose was followed (Figure 3, Additional file 1: Figures S1 and S2). Because the cellobiose inhibition of the EG TrCel5A is much weaker than that of GH7 CBHs, the inhibition of synergistic hydrolysis apparently reflects the inhibition of CBH. The strength of cellobiose inhibition was analyzed using plots of (DCB/DCB=0) versus [cellobiose], where DCB and DCB=0 represent the degree of conversion of ^14C-BC in the presence and absence of cellobiose, respectively (Figure 4, Additional file 1: Figure S3). […]
where [CB] is the concentration of cellobiose; [^14CBC] is the concentration of ^14C-BC used in the experiment; and C1, C2 and H are empirical constants. Equation 5 differs from Equation 1 by the presence of constant H. H was included to improve the fit and is a constant that accounts for the background radioactivity (the degree of conversion that is independent of CBH). The degree of conversion resulting from the activity of the EG was measured in a separate experiment (Additional file 1: Figure S4) and was subtracted from the degree of conversion resulting from the synergistic hydrolysis. […] Provided with the values of C1, C2 and H, the value of IC50 was calculated as follows: […]

The target of assay [2] is CtCel6A (Chaetomium thermophilum, UniProt G0SD43). Kind of assay: Inhibition of hydrolysis of 14C-BMCC by CtCel6A. In kind it is biochemical. As to conditions: cellobiose; hydrolysis of 14C-BMCC by CtCel6A at 50°C. The text has this: Here, we characterized the cellobiose and glucose inhibition of TrCel6A and its thermophilic counterpart, CtCel6A [9, 63]. First, the cellobiose inhibition of the synergistic hydrolysis of ^14C-BC by TrCel6A and TrCel5A was studied (Figure 7A). As TrCel6A was less sensitive to cellobiose inhibition than TrCel7A, the contribution of the cellobiose released during hydrolysis was not significant, and an average (DCB/DCB=0) over all time points was used in plotting (DCB/DCB=0) versus [cellobiose] (Figure 7D). No significant systematic variation of DCB/DCB=0 depending on hydrolysis time was observed. As in the case of GH7 CBHs, the IC50 value was found using Equations 5 and 6. Because the IC50 value for synergistic hydrolysis (Table 3) was of the same order as the apparent Ki value reported for TrCel5A [31], we further tested the inhibition of individual TrCel6A. BC is not a good substrate for TrCel6A, but its acid-treated derivative, BMCC, is readily degraded by the enzyme. Therefore, we prepared ^14C-BMCC by the heterogeneous acid hydrolysis of ^14C-BC. […]
CtCel6A, sequence (G0SD43 entry or part of it): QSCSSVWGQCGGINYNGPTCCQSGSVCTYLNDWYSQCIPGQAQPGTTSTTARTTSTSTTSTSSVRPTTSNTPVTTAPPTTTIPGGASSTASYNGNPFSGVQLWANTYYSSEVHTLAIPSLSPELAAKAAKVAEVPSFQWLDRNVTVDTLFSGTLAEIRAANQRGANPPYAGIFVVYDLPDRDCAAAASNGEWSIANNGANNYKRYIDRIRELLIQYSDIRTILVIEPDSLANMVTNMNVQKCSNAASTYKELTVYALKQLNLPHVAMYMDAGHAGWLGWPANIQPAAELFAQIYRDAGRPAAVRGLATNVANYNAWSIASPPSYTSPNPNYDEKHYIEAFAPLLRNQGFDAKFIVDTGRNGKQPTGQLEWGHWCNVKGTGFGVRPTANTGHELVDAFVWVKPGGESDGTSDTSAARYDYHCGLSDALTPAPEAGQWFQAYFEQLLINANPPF
GH6 CBHs were assessed by observing the hydrolysis of ^14C-BMCC. ^14C-BMCC (0.25 g l^-1) was incubated (with shaking at 350 rpm) with CBH (0.25 μM) and N188BG (0.06 μM) in 50 mM sodium acetate buffer, pH 5.0, containing BSA (0.1 g l^-1). […]

In assay [3] the test system is TrCel12A. More on the design: method as in PMID 15129433. As to conditions: 3H-reduced amorphous cellulose, cellobiose 1 mM – 100 mM; cited from earlier work.

T1 sequence (P62694 18-513): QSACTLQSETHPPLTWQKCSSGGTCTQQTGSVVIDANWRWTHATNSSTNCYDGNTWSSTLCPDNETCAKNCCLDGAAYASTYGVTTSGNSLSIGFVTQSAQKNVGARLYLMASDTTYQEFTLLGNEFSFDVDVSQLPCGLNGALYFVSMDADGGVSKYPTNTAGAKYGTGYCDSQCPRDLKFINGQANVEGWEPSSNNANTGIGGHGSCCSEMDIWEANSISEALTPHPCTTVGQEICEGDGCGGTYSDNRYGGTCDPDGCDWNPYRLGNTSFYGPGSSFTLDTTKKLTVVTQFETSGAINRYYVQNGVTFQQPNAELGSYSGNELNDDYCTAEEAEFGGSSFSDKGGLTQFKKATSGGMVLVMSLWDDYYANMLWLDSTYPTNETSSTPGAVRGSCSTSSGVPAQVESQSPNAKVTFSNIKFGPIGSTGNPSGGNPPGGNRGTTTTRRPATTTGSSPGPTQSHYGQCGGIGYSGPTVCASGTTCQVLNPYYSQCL

Consider `O=C[C@H](O)[C@@H](O)[C@H](O[C@@H]1O[C@H](CO)[C@@H](O)[C@H](O)[C@H]1O)[C@H](O)CO` [cellobiose, Cellobiose], for which the IC50 in assay [1] (35°C, IC50 increased with hydrolysis time) came out at 0.68 ± 0.24 mM; in assay [1] (50°C), 2.61 ± 0.1 mM; in assay [2] it was 28 ± 4.5 mM. Also, the “Effect of cellobiose on activity” value in assay [3] is recorded as “apparent activation”.

The record behind these values is PMC3726336, “Product inhibition of cellulases studied with ^14C-labeled cellulose substrates” (Biotechnology for Biofuels, 2013).
